Data: US20250134379A1, “Methods for Localization of Cancerous Tissue Using Fluorescent Molecular Imaging Agent for Diagnosis or Treatment” (Vergent Bioscience, Inc., priority 2023, published 2025)

Columns and labels:
cancerous tissue = test: Preclinical / animal model studies of duration of VGT-309 fluorescence in tissue; assay type: in vivo
From the text: There are several molecular imaging agents that are currently in various stages of development and testing, but of these agents VGT-309 is particularly advantageous. VGT-309 targets and covalently binds to cathepsin targets, which are present in larger amounts in solid tumors and tumor margins than in normal tissues. When this binding occurs, the quencher is cleaved from the molecule and VGT-309 becomes “active” at which point the tumor will fluoresce under near-infrared (NIR) light.

tumor [1] = test: Intraoperative NIR imaging of patients given VGT-309 before surgery; assay type: in vivo, human; settings: patient
From the text: A patient appeared to have a localized tumor, as identified by the preoperative scans, but the surgeon identified lymph node spread during resection with VGT-309. […] Absent from these scans were any evidence of spread to other areas of the lungs or the lymph nodes. […] […] The surgeon also visually examined and biopsied the proximal lymph nodes, neither of which indicated the tumor had spread. […] The surgeon was therefore able to perform a biopsy, which confirmed that the cancer had spread, and as a result re-staged the patient in real-time and performed a radical lymph node dissection. At the end of the procedure, the surgeon removed all traces of the cancer.
However, it was confirmed under NIR that this abnormal lung tissue was in fact cancerous.

tumor [2] = test: Phase 2 study of VGT-309 in Australia: clinically significant events (CSEs) during tumor removal; assay type: in vivo, human; settings: Phase 2 study in Australia
From the text: CSEs are one way to measure whether an imaging agent, such as VGT-309, adds a clinical benefit to the diagnosis and treatment process. In this context, CSEs generally fall into one of three categories: (1) localization of hard-to-find tumors, (2) identification of positive resection margins, and (3) identification of additional primary and metastatic lesions that were not previously detected using existing technologies. […] In a Phase 2 study of VGT-309 in Australia, one third of patients experienced a […]

CC1(C)C(/C=C/C2=C(Cl)C(=C/C=C3/N(CCCCCC(=O)NCCNC(=O)c4c(F)c(F)c(OCC(=O)[C@H](CCCCNC(=O)CCCCCN5/C(=C/C=C/C=C/C=C\C6=[N+](CCCCS(=O)(=O)O)c7ccc8ccccc8c7C6(C)C)C(C)(C)c6c5ccc5ccccc65)NC(=O)[C@H](Cc5ccccc5)NC(=O)OCc5ccccc5)c(F)c4F)c4ccc5cc(S(=O)(=O)O)ccc5c4C3(C)C)/CCC2)=[N+](CCCS(=O)(=O)O)c2ccc(N(CCCS(=O)(=O)O)CCCS(=O)(=O)O)cc21 [VGT-309]
time following administration out to which VGT-309 may continue to emit a signal in tissue (cancerous tissue; animal model studies suggest): seven days
time after administration at which VGT-309 can fluoresce cancerous tissue (cancerous tissue; based on preclinical studies): two hours to four days
detection of lymph node spread under NIR (tumor [1]; Example 2, 0.16 mg/kg, approximately 21 hours prior to surgery, biopsy confirmed that the cancer had spread): unexpected fluorescence in a more distant lymph node
identification of metastatic spread / additional tumors under NIR (tumor [1]; Example 3, 0.32 mg/kg, approximately 18.5 hours prior to surgery): identify additional tumors using NIR
fraction of patients who experienced a clinically significant event (CSE) (tumor [2]): one third
